Measured values: patent US20240059691A1 (KALVISTA PHARMACEUTICALS LIMITED, priority 2020, published 2024)

The molecules below were run against Human Factor XIIa (Homo sapiens (Human), UniProt P00748) (assay: Determination of FXIIa inhibition (fluorogenic substrate H-DPro-Phe-Arg-AFC, IC50 assay)). Settings: substrate H-DPro-Phe-Arg-AFC at Km, 25° C.; class scale A-G.
Chain of Human Factor XIIa (P00748 373-615): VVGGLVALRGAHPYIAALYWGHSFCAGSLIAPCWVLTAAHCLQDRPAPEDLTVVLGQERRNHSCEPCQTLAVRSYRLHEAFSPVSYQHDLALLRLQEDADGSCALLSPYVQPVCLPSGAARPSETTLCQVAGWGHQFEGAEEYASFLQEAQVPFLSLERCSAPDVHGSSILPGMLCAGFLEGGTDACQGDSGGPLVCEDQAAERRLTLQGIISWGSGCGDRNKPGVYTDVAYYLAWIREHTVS
Type: biochemical
Method: Determination of FXIIa Inhibition
In vitro inhibition of Factor XIIa was determined using an IC50 assay based on standard literature methods (see e.g Baeriswyl et al., ACS Chem. Biol., 2015, 10 (8) 1861; Bouckaert et al., European Journal of Medicinal Chemistry 110 (2016) 181). Human Factor XIIa (Enzyme Research Laboratories) was incubated at 25° C. with the fluorogenic substrate H-DPro-Phe-Arg-AFC (Peptide Protein Science) and various concentrations of the test compound. Protease activity was measured by monitoring the accumulation of liberated fluorescence from the substrate over 5 min at 25° C. The linear rate of fluorescence increase per minute was expressed as percentage (%) activity. The Km for the cleavage of the substrate by FXIIa was determined by standard transformation of the Michaelis-Menten equation. The compound inhibitor assays were performed at substrate Km concentration. IC50 values were calculated as the concentration of inhibitor giving 50% inhibition (IC50) of the uninhibited enzyme activity (100%).
Cc1cc(N2CCn3c(nnc3C(F)(F)F)C2C)cnc1CNc1cccc2c(N)nccc12 (stereo not drawn) [Example 9007, N5-((3-methyl-5-(8-methyl-3-(trifluoromethyl)-5,6-dihydro-[1,2,4]triazolo[4,3-a]pyrazin-7(8H)-yl)pyridin-2-yl)methyl)isoquinoline-1,5-diamine] gave an IC50 of 10 to 100 nM.
In the case of CN1CCC(CCc2cc(CNc3ccc4c(N)nccc4c3)ccn2)CC1 [Example 4409, 6-N-({2-[2-(1-methylpiperidin-4-yl)ethyl]pyridin-4-yl}methyl)isoquinoline-1,6-diamine], the IC50 is reported as 300 to 1000 nM.
CN1CCC(CCc2cccc(CNc3ccc4c(N)nccc4c3)c2)CC1 [Example 4410, 6-N-({3-[2-(1-methylpiperidin-4-yl)ethyl]phenyl}methyl)isoquinoline-1,6-diamine] was tested, and the IC50 was 300 to 1000 nM.
With Cn1ccnc1CCCNc1ncc(CNc2ccc3c(N)ncc(Cl)c3c2)cn1 [Example 1038, 4-chloro-6-N-[(2-{[3-(1-methylimidazol-2-yl)propyl]amino}pyrimidin-5-yl)methyl]isoquinoline-1,6-diamine] the IC50 was 3000 to 10000 nM.
Molecule CN1CCN(Cc2ccc(CNc3ccc4c(N)nccc4c3)cc2)CC1 [Example 1007, 6-N-({4-[(4-methylpiperazin-1-yl)methyl]phenyl}methyl)isoquinoline-1,6-diamine] has an IC50 of 300 to 1000 nM.
For CCC1c2nnc(C(F)(F)F)n2CCN1c1cc(C)c(CNc2cccc3c(N)nccc23)cn1 (stereo not drawn) [Example 1331, N5-((6-(8-ethyl-3-(trifluoromethyl)-5,6-dihydro-[1,2,4]triazolo[4,3-a]pyrazin-7(8H)-yl)-4-methylpyridin-3-yl)methyl)isoquinoline-1,5-diamine], the IC50 was 100 to 300 nM.
CN1CCC(CNc2ccc(CNc3cc(Cl)cc4[nH]ccc34)cn2)CC1 [Example 1241, 6-chloro-N-((6-(((1-methylpiperidin-4-yl)methyl)amino)pyridin-3-yl)methyl)-1H-indol-4-amine] was tested, and the IC50 was 10000 to 40000 nM.
Nc1nccc2c(NCc3ccc(N4CCn5c(nnc5C(F)(F)F)C4)cc3F)cccc12 [Example 2256, N5-(2-Fluoro-4-(3-(trifluoromethyl)-5,6-dihydro-[1,2,4]triazolo[4,3-a]pyrazin-7(8H)-yl)benzyl)isoquinoline-1,5-diamine] showed an IC50 of 10 to 100 nM.
For CN1CCC(C)(COc2cc(CNc3ccc4c(N)nccc4c3)ccn2)CC1 [Example 4425, 6-N-({2-[(1,4-dimethylpiperidin-4-yl)methoxy]pyridin-4-yl}methyl)isoquinoline-1,6-diamine], the IC50 was 300 to 1000 nM.
With CCc1cc2c(NCc3ccc(NCC4CCN(C)CC4)nc3)ccnc2[nH]1 [Example 1239, 2-ethyl-N-((6-(((1-methylpiperidin-4-yl)methyl)amino)pyridin-3-yl)methyl)-1H-pyrrolo[2,3-b]pyridin-4-amine] the IC50 was 10000 to 40000 nM.
CN1CCC(OCc2ccc(CN(C)c3cccc4c(N)nccc34)c(Cl)c2)CC1 [Example 2203, 5-N-[(2-chloro-4-{[(1-methylpiperidin-4-yl)oxy]methyl}phenyl)methyl]-5-N-methylisoquinoline-1,5-diamine] gave an IC50 of 1000 to 3000 nM.
Molecule Nc1nccc2c(NS(=O)(=O)c3ccc(N4CCn5c(nnc5C(F)(F)F)C4)nc3)cccc12 [Example 1337, N-(1-aminoisoquinolin-5-yl)-6-(3-(trifluoromethyl)-5,6-dihydro-[1,2,4]triazolo[4,3-a]pyrazin-7(8H)-yl)pyridine-3-sulfonamide] has an IC50 of 300 to 1000 nM.
In the case of Nc1nccc2cc(NCc3ccnc(OCC4CCn5ccnc5C4)c3)ccc12 (stereo not drawn) [Example 4408, N6-((2-((5,6,7,8-tetrahydroimidazo[1,2-a]pyridin-7-yl)methoxy)pyridin-4-yl)methyl)isoquinoline-1,6-diamine], the IC50 is reported as 100 to 300 nM.
CCC1c2nnc(C(F)(F)F)n2CCN1c1cc(C)c(CNc2cccc3c(N)nccc23)cn1 (single isomer, unassigned) [Example 1321, (S*)-N5-((6-(8-ethyl-3-(trifluoromethyl)-5,6-dihydro-[1,2,4]triazolo[4,3-a]pyrazin-7(8H)-yl)-4-methylpyridin-3-yl)methyl)isoquinoline-1,5-diamine] gave an IC50 of 100 to 300 nM.
Cc1cc(N2CCn3c(nnc3C(F)(F)F)C2C)cnc1CNc1cccc2c(N)nccc12 (single isomer, unassigned) [Example 1346, (S*)-N5-((3-methyl-5-(8-methyl-3-(trifluoromethyl)-5,6-dihydro-[1,2,4]triazolo[4,3-a]pyrazin-7(8H)-yl)pyridin-2-yl)methyl)isoquinoline-1,5-diamine] gave an IC50 of 1000 to 3000 nM.
For Cn1ccnc1CCCOc1cc(CNc2ccc3c(N)nccc3c2)ccn1 [Example 4420, 6-N-({2-[3-(1-methylimidazol-2-yl)propoxy]pyridin-4-yl}methyl)isoquinoline-1,6-diamine], the IC50 was 1000 to 3000 nM.
In the case of Nc1nccc2cc(NCc3ccnc(OC[C@@H]4CCn5ccnc5C4)c3)ccc12 (single isomer, unassigned) [Example 4412, 6-N-({2-[(7R*)-5H,6H,7H,8H-imidazo[1,2-a]pyridin-7-ylmethoxy]pyridin-4-yl}methyl)isoquinoline-1,6-diamine], the IC50 is reported as 100 to 300 nM.
CN1CCC(COc2ccc(CCc3cccc4c(N)nccc34)cn2)CC1 [Example 1019, 5-(2-{6-[(1-methylpiperidin-4-yl)methoxy]pyridin-3-yl}ethyl)isoquinolin-1-amine] showed an IC50 of 3000 to 10000 nM.
For CC(C)N1CCC(OCc2cc(CNc3ccc4c(N)ncc(Cl)c4c3)ccn2)CC1 [Example 4296, 4-chloro-6-N-[(2-{[(1-isopropylpiperidin-4-yl)oxy]methyl}pyridin-4-yl)methyl]isoquinoline-1,6-diamine], the IC50 was 1000 to 3000 nM.
Nc1nccc2c(NCc3cnc(N4CCn5c(nnc5C(F)(F)F)C4)c(CO)c3)cccc12 [Example 1335, (5-(((1-aminoisoquinolin-5-yl)amino)methyl)-2-(3-(trifluoromethyl)-5,6-dihydro-[1,2,4]triazolo[4,3-a]pyrazin-7(8H)-yl)pyridin-3-yl)methanol] gave an IC50 of 10000 to 40000 nM.
CN1CCC(COc2cc(CNc3ccc4c(N)nccc4c3)ccn2)CC1=O (stereo not drawn) [Example 4416, 4-{[(4-{[(1-aminoisoquinolin-6-yl)amino]methyl}pyridin-2-yl)oxy]methyl}-1-methylpiperidin-2-one] was tested, and the IC50 was 300 to 1000 nM.
CN1CCN(CCc2cccc(CNc3ccc4c(N)nccc4c3)c2)CC1 [Example 4288, 6-N-({3-[2-(4-methylpiperazin-1-yl)ethyl]phenyl}methyl)isoquinoline-1,6-diamine] gave an IC50 of 3000 to 10000 nM.
Work on CN1CCN(CCc2ccc(CNc3ccc4c(N)nccc4c3)cc2)CC1 [Example 2180, 6-N-({4-[2-(4-methylpiperazin-1-yl)ethyl]phenyl}methyl)isoquinoline-1,6-diamine] yielded an IC50 of 300 to 1000 nM.
Molecule Cc1cc(N2CCn3c(nnc3C(F)(F)F)C2)ncc1CNc1ccc2nccn2c1 [Example 1322, N-((4-methyl-6-(3-(trifluoromethyl)-5,6-dihydro-[1,2,4]triazolo[4,3-a]pyrazin-7(8H)-yl)pyridin-3-yl)methyl)imidazo[1,2-a]pyridin-6-amine] has an IC50 of 10000 to 40000 nM.
CCc1nc(N2CCn3c(nnc3C(F)(F)F)C2)ccc1CNc1cccc2c(N)nccc12 [Example 1336, N5-((2-ethyl-6-(3-(trifluoromethyl)-5,6-dihydro-[1,2,4]triazolo[4,3-a]pyrazin-7(8H)-yl)pyridin-3-yl)methyl)isoquinoline-1,5-diamine] gave an IC50 of 300 to 1000 nM.
Nc1nccc2cc(NCc3ccc(OCc4ccncc4)nc3)ccc12 [Example 1014, 6-N-{[6-(pyridin-4-ylmethoxy)pyridin-3-yl]methyl}isoquinoline-1,6-diamine] showed an IC50 of 3000 to 10000 nM.
CC(Oc1cc(CNc2ccc3c(N)nccc3c2)ccn1)C1CCN(C)CC1 (stereo not drawn) [Example 4414, 6-N-({2-[1-(1-methylpiperidin-4-yl)ethoxy]pyridin-4-yl}methyl)isoquinoline-1,6-diamine] gave an IC50 of 100 to 300 nM.
In the case of CN1CCC(CCOc2ccc(CNc3ccc4c(N)nccc4c3)cn2)CC1 [Example 1032, 6-N-({6-[2-(1-methylpiperidin-4-yl)ethoxy]pyridin-3-yl}methyl)isoquinoline-1,6-diamine], the IC50 is reported as 300 to 1000 nM.
Cc1nnc2n1CCC(COc1cc(CNc3ccc4c(N)nccc4c3)ccn1)C2 (stereo not drawn) [Example 4413, 6-N-{[2-({3-methyl-5H,6H,7H,8H-[1,2,4]triazolo[4,3-a]pyridin-7-yl}methoxy)pyridin-4-yl]methyl}isoquinoline-1,6-diamine] showed an IC50 of 1000 to 3000 nM.
Molecule Cc1cc(N2Cc3nnc(C(F)(F)F)n3C[C@H]2C)ncc1CNc1cccc2c(N)nccc12 [Example 1342, (R)-N5-((4-methyl-6-(6-methyl-3-(trifluoromethyl)-5,6-dihydro-[1,2,4]triazolo[4,3-a]pyrazin-7(8H)-yl)pyridin-3-yl)methyl)isoquinoline-1,5-diamine] has an IC50 of 10 to 100 nM.
For CN1CCC(COc2cc(CNc3ccc4c(N)ncnc4c3)ccn2)CC1 [Example 4263, 7-N-({2-[(1-methylpiperidin-4-yl)methoxy]pyridin-4-yl}methyl)quinazoline-4,7-diamine], the IC50 was 10000 to 40000 nM.
COCC1c2nnc(C(F)(F)F)n2CCN1c1cc(C)c(CNc2cccc3c(N)nccc23)cn1 (stereo not drawn) [Example 1319, N5-((6-(8-(methoxymethyl)-3-(trifluoromethyl)-5,6-dihydro-[1,2,4]triazolo[4,3-a]pyrazin-7(8H)-yl)-4-methylpyridin-3-yl)methyl)isoquinoline-1,5-diamine] was tested, and the IC50 was 10 to 100 nM.
With COc1nc(OCC2CCN(C)CC2)ccc1CNc1ccc2c(N)nccc2c1 [Example 1027, N6-((2-methoxy-6-((1-methylpiperidin-4-yl)methoxy)pyridin-3-yl)methyl)isoquinoline-1,6-diamine] the IC50 was 100 to 300 nM.
